The text below walks through data of patent publication US20260008793A1, “IONIZABLE CATIONIC LIPIDS INCORPORATING SILICON” (ALDEXCHEM KFT., priority 2022, published 2026).

The test system of data set [1] is HeLa cells. As to the kind of experiment: Transfection efficiency with Luciferase-mRNA, Nano-Glo assay (Method A). The data set is classed as cell-based. The note with it: 100 ng Luciferase (SecNLuc) mRNA, 24 h, luminescence. The method, boiled down:
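LNPs carrying secreted NanoLuc mRNA (100, 50 or 10 ng/well, in Opti-MEM) added to HeLa cells at ~80% confluence and incubated 24 h. Medium luciferase activity measured by Nano-Glo luminescence about 3 min after reagent addition; toxicity tested in parallel by resazurin.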

Data set [2] is described as follows: LNP size, PDI and zeta potential by Dynamic Light Scattering (Method A). It counts as physicochemical. Conditions: LNP formulated by Method A; for Zeta potential (mV): 1xPBS pH 7.4; for PDI / Size (nm): DLS; for Size (nm): Luciferase-mRNA loaded. How it is done:
The synthesized lipids were tested in term of in vitro transfection efficacy and toxicity on HeLa cells. In order to perform the mentioned biological tests, appropriate LNPs had to be formulated from the synthesized lipids. The formulation technique was different in Method A and B. The particle size, PDI and zeta potential of resulting LNPs were determined by means of Dynamic Light Scattering technique (DLS). Prior to biological testing the encapsulation efficiency (EE) of the loaded LNPs was determined by using RiboGreen RNA assay. In case of Method A Luciferase-mRNA while in case of Method B GFP-mRNA was transfected into the cells. In parallel with the transfection experiments, toxicity of the investigated LNPs was determined, in case of Method A resazurin assay while in case of Method B MTT assay was used. In the case of some lipids, the apparent pKa in LNPs was determined by using TNS titration based on the method described: Angew Chem Int Ed Engl. 2012, 51 (34), 8529-8533, doi: 10.1002/anie.201203263).
• 1. If needed, prepare stock solutions by solving known amounts of lipid powder into an appropriate solvent. The recommended solvent is Ethanol and the recommended concentration is typically in the range 10-50 mM. Higher concentrations are preferred to allow flexibility on mRNA-LNP concentration. • 2. Remove the lipid stock solutions from the −20° C. freezer. For long-term storage, −80° C. is used. • 3. Check the vials for precipitation, DOPE (CAS #4004-05-1) (20 mM) and DSPE-PEG (CAS #474922-26-4) (5 mM) may need a 5-30 minute incubation step at 37° C. with intermittent vortexing to resuspend all contents. […] As a last resort, lipids may be heated to 50° C. to resuspend, time should be kept as short as possible to prevent oxidation or other modifying or degradative processes. • 4. Mix the lipids by vortexing for 2 minutes. • 5. […] Cooling the solution prevent excessive evaporation of ethanol or similar solvents upon opening. • 6. Meanwhile, thaw the RNA samples, including the latest SecNLuc control, by inserting the frozen tube in a room temperature aluminium block. • 7. Prepare for each LNP-formulation with identical mRNA component, an RNA master mix according to Table 1 below in a fresh tube. Use of a master mix allows more precise comparison of lipid formulations relative to each other. Split the master mix over a number of fresh tubes equal to the number of samples+controls. Each tube contains 375 μl of mRNA in 10 mM Citrate pH 4.0. • 8. Prepare for each LNP formulation with identical lipid composition a Lipid master mix according to Table 1 below in a fresh tube, exclude the lipid of interest. Use of a master mix allows more precise comparison of the novel ionizable lipid relative to each other. Split the master mix over a number of fresh tubes equal to the number of samples+controls. Each tube contains 65.5 μl of lipid master mix. • 9. Add the ionizable lipid of interest to the equally divide lipid master mix. Mix well by pipetting up and down. Label the tube according to the ionizable lipid used. • 10. Power on the ‘L 1 formulation machine’ (L 1 FM) and allow it to do a calibration of motor positions.
• 18. Fill a fresh syringe (C) through a blunt 18 G stainless steel needle with the previously prepared RNA mixture of step 6. The volume should be approximately […] of total formulation volume+25 μl (dead-volume). Make sure to remove all air bubbles by tapping. • 19. Fill a fresh syringe (D) through a blunt 18 G stainless steel needle with the Lipid master mix. The volume should be approximately 35% of total formulation volume+25 μl (dead-volume). Again, Make sure to remove all bubbles. • 20. Attach the syringes in the correct orientation, syringe A on the left and syringe B on the right • 21. Load the ‘Receiving station’ with appropriate sized collection containers (2 ml Eppendorf tubes). • 22. Press the microfluidic chip to the back of the machine with your thumb and hold, press the ‘Button 1’ (40 g). […]

As to `CCCCCCCCOC(CCCCCCC)O[Si](C)(C)CCCCCCN(CCCCO)CCC[C@@H](C)C1CCC2C3CCC4C[C@H](OC)CC[C@]4(C)C3CC[C@@]21C` (stereo partly drawn) [Example 224, 14-heptyl-5-((4R)-4-((3R,10S,13R)-3-methoxy-10,13-dimethylhexadecahydro-1H-cyclopenta[a]phenanthren-17-yl)pentyl)-12,12-dimethyl-13,15-dioxa-5-aza-12-silatricosan-1-ol], the “Transfection* (Method A = 100 ng mRNA)” value in data set [1] amounted to 4919513. Also, in data set [2], the “Zeta potential (mV)” value is listed as −16.58 mV, the PDI is 0.08 and the “Size (nm)” value is listed as 176.5 nm.
The like results for `CCCCCCCCOC(CCCCCC)O[Si](C)(C)OCCCCCCN(CCCCO)CCCCCCOC(=O)C(CCCCCC)CCCCCCCC` (stereo not shown) [Example 142, 17-hexyl-7-(4-hydroxybutyl)-15,15-dimethyl-14,16,18-trioxa-7-aza-15-silahexacosyl 2-hexyldecanoate] were, in that order, 5491290, −12.8 mV, 0.06 and 125.1 nm.
The like results for `CCCCCCCCC(CCCCCC)CO[Si](C)(C)OC(CCCCCCC)OCCCCCCN(CCCCO)CCC[C@@H](C)C1CCC2C3CCC4C[C@H](OC)CC[C@]4(C)C3CC[C@@]21C` (stereo partly drawn) [Example 223, 13-heptyl-18-hexyl-5-((4R)-4-((3R,10S,13R)-3-methoxy-10,13-dimethylhexadecahydro-1H-cyclopenta[a]phenanthren-17-yl)pentyl)-15,15-dimethyl-12,14,16-trioxa-5-aza-15-silahexacosan-1-ol] were, in that order, 2167625, −13.68 mV, 0.15 and 206.5 nm.
The like results for `CCCCCCCCOC(CCCCCCC)O[Si](C)(C)CCCCCCN(CCCCO)CCCCCC[Si](C)(C)OC(CCCCCCC)OCCCCCCCC` (stereo not shown) [Example 113, 5-(6-(dimethyl((1-(octyloxy)octyl)oxy)silyl)hexyl)-14-heptyl-12,12-dimethyl-13,15-dioxa-5-aza-12-silatricosan-1-ol] were, in that order, 200295, −5.00 mV, 0.11 and 174.6 nm.
As for `CCCCCCCCC(CCCCCC)C(=O)OCCCCCCN(CCCCO)CCCCCCOC(=O)C(CCCCCC)CCCCCCCC` (stereo not shown) [ALC-0315, reference compound], in data set [1], the “Transfection* (Method A = 100 ng mRNA)” value was determined as 836793. Also, in data set [2], the “Zeta potential (mV)” value was −11.12 mV, the PDI stood at 0.113 and the “Size (nm)” value is recorded as 172.6 nm.
For the compound `CCCCCCCCO[Si](C)(C)O[Si](C)(C)OC(CCCCCCC)OCCCCCCN(CCCCO)CCCCCCOC(=O)C(CCCCCCCC)SCCCCC` (stereo not shown) [Example 184, 15-heptyl-7-(4-hydroxybutyl)-17,17,19,19-tetramethyl-14,16,18,20-tetraoxa-7-aza-17,19-disilaoctacosyl 2-(pentylthio)decanoate], the “Transfection* (Method A = 100 ng mRNA)” value in data set [1] was found to be 883795. Moreover, in data set [2], the “Zeta potential (mV)” value is recorded as −14.83 mV, the PDI was 0.146 and the “Size (nm)” value was 237.5 nm.
The like results for `CCCCCCCCCCCOC(=O)CCCCCN(CCO)CCCCCCCCCC(OCCCCCCCC)O[Si](C)(C)CCCCCC` (stereo not shown) [Example 210, undecyl 6-((10-((hexyldimethylsilyl)oxy)-10-(octyloxy)decyl)(2-hydroxyethyl)amino)hexanoate] were, in that order, 1936082, −18.75 mV, 0.097 and 181.2 nm.
Regarding `CC/C=C\C/C=C\C/C=C\C/C=C\C/C=C\CCCCN(CCCCO)CCCCCCOC(CCCCCCC)O[Si](C)(C)O[Si](C)(C)OCCCCCCCC` (stereo not shown) [Example 201, 13-heptyl-5-((5Z,8Z,11Z,14Z,17Z)-icosa-5,8,11,14,17-pentaen-1-yl)-15,15,17,17-tetramethyl-12,14,16,18-tetraoxa-5-aza-15,17-disilahexacosan-1-ol], in data set [1], the “Transfection* (Method A = 100 ng mRNA)” value turned out to be 25071. In data set [2], the “Zeta potential (mV)” value is −13.1 mV, the PDI was 0.055 and the “Size (nm)” value turned out to be 176.2 nm.
Take `CCCCCCCCOC(CCCCCN(CCCCO)CCCCCCOC(=O)C(CCCCCCCC)SCCCCC)O[Si](C)(C)OCCCCCCCC` (stereo not shown) [Example 179, 7-(4-hydroxybutyl)-15,15-dimethyl-13-(octyloxy)-14,16-dioxa-7-aza-15-silatetracosyl 2-(pentylthio)decanoate]: the “Transfection* (Method A = 100 ng mRNA)” value in data set [1] is reported as 41726. Besides, in data set [2], the “Zeta potential (mV)” value was −10.65 mV, the PDI was determined as 0.038 and the “Size (nm)” value amounted to 189.1 nm.
Regarding `CCCCCCCCOC(CCCCCN(CCO)CCCCCCCC(=O)OC(CCCCCCCC)CCCCCCCC)O[Si](C)(C)OCCCCCCCC` (stereo not shown) [Example 190, heptadecan-9-yl 18-(2-hydroxyethyl)-10,10-dimethyl-12-(octyloxy)-9,11-dioxa-18-aza-10-silahexacosan-26-oate], in data set [1], the “Transfection* (Method A = 100 ng mRNA)” value came out at 15121. Moreover, in data set [2], the “Zeta potential (mV)” value is −11.40 mV, the PDI is 0.075 and the “Size (nm)” value is 208.2 nm.
The matching figures for `CCCCCCCCO[Si](C)(C)OC(CCCCCCC)OCCCCCCN(CCCCCCOC(CCCCCCC)O[Si](C)(C)OCCCCCCCC)CCC1CCCN1C` (stereo not shown) [Example 121, 8-heptyl-N-(8-heptyl-10,10-dimethyl-7,9,11-trioxa-10-silanonadecyl)-10,10-dimethyl-N-(2-(1-methylpyrrolidin-2-yl)ethyl)-7,9,11-trioxa-10-silanonadecan-1-amine]: 80788.5, −11.47 mV, 0.012 and 179.2 nm.
The matching figures for `CCCCCCCC[Si](C)(C)OC(CCCCCCC)OCCCCCCN(CCCCO)CCC[C@@H](C)C1CCC2C3CCC4C[C@H](OC)CC[C@]4(C)C3CC[C@@]21C` (stereo partly drawn) [Example 215, 13-heptyl-5-((4R)-4-((3R,10S,13R)-3-methoxy-10,13-dimethylhexadecahydro-1H-cyclopenta[a]phenanthren-17-yl)pentyl)-15,15-dimethyl-12,14-dioxa-5-aza-15-silatricosan-1-ol]: 522805, −3.3 mV, 0.211 and 204 nm.
The like results for `CCCCCCCCCCSC(CCCC)C(=O)OCCCCCCN(CCCCO)CCCCCCOC(CCCCCCC)O[Si](C)(C)O[Si](C)(C)CCCCCCCC` (stereo not shown) [Example 171, 15-heptyl-7-(4-hydroxybutyl)-17,17,19,19-tetramethyl-14,16,18-trioxa-7-aza-17,19-disilaheptacosyl 2-(decylthio)hexanoate] were, in that order, 302489, −12.04 mV, 0.017 and 178.9 nm.
